Experimental data reported in patent US20180118708A1, “CYCLIC COMPOUND” (Takeda Pharmaceutical Company Limited, priority 2015, published 2018).

What was measured:
[1] = biological target: T1, TLR4 (Mus musculus, UniProt Q9QUK6); assay: Inhibitory effect with respect to NO production (LPS/interferon γ stimulated RAW264.7 cells); type: cell-based, murine; conditions: test compound 100 nM, LPS 1.25 ng/mL + mouse interferon γ 0.2 ng/mL, nitrite ion in culture supernatant
T1 construct: endogenous in cells; host or cells: RAW264.7 (murine macrophage cell line)
T1 sequence (Q9QUK6 26-835): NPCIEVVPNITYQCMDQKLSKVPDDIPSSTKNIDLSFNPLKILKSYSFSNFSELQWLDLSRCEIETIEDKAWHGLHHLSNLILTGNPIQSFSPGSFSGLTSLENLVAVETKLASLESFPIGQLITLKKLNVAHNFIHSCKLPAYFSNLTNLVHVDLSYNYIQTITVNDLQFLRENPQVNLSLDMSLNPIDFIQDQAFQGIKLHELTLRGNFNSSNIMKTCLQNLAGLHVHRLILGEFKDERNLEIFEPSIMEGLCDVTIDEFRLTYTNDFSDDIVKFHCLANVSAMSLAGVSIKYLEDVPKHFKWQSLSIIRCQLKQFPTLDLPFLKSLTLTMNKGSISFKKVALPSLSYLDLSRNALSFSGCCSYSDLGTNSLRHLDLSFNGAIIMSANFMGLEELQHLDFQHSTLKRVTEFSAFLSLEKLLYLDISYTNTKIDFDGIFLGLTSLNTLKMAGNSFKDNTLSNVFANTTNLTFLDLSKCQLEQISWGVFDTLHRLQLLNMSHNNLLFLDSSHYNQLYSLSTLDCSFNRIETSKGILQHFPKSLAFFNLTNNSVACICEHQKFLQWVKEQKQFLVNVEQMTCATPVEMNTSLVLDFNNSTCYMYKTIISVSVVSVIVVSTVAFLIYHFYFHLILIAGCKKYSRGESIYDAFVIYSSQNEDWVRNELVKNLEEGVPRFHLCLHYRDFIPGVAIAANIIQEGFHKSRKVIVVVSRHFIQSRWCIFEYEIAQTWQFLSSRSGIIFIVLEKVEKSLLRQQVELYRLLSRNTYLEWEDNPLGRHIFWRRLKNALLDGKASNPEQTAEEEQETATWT
T1 sequence (Q9JHF9 19-160 partner): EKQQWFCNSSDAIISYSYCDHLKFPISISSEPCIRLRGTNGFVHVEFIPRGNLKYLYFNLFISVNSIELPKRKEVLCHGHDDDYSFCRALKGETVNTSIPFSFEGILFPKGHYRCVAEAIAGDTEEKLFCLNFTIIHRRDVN
Procedure: Inhibitory Effect With Respect to NO Production
The inhibitory effect on TLR4 was determined using the inhibition rate due to the test compound with respect to NO production as a result of addition of lipopolysaccharide (LPS) using murine macrophage cell line RAW264.7. The cells were adjusted to 2×10^6 cells/mL using RPM1-1640 culture medium (phenol red free) supplemented with 10% inactivated bovine fetal serum, and were plated on 384 well plate so as to contain 6×10^4 cells/30 μL per well. Thereafter the cells were cultured at 37° C. overnight under 5% CO2/95% air. The test compound dissolved in DMSO was diluted 200 times using RPM1-1640 culture medium and adjusted so as to form a compound concentration of 500 nM. The prepared test compound 10 μL (final concentration 100 nM) was added to the cells, and LPS (Sigma) and mouse interferon γ (Wako Pure Chemicals) were added in amounts of 10 μL so as to form final concentrations of 1.25 ng/mL and 0.2 ng/mL respectively. The cells were further cultured overnight, and then the nitrite ion (stable NO metabolite) concentration in the culture supernatant was measured as an index of NO production. The nitrite ion concentration was assayed by adding 10 μL of 20 μg/mL 2,3-diamino naphthalene (DAN) dissolved in 0.2N HCl to 20 μL culture supernatant, incubating at room temperature for ten minutes, and then adding 10 μL of 0.5N NaOH, and measuring the fluorescent value at 460 nm (excitation wavelength 355 nm) using an EnVision plate reader (Perkin Elmer). The NO production inhibition rate (%) was calculated using the value without the addition of stimulating agent as control of 100% inhibition, and the value without the addition of the compound as control of 0% inhibition.

[2] = system: TNFα; assay: Effect with respect to blood TNF-α concentration elevation by LPS stimulation; type: in vivo; conditions: oral, female BALB/c mice, LPS 5 mg/kg i.p. one hour after compound, serum sampled one hour later, vs control group
From the text: Effect With Respect to Blood TNF-α Concentration Elevation by LPS Stimulation
Various kinds of cytokines are produced in vivo accompanying inflammatory response and abnormal immunity or the like. Therefore, the action of test compound with respect to blood TNFa concentration rise was investigated using laboratory animals.
Female BALB/c mice (6 weeks old) were purchased, and, after preliminary rearing for about 1 week, the mice were divided into groups of four animals. […] Solvent was administered to control group in the same way. LPS (5 mg/kg) was administered intraperitoneally to the test group and the control group one hour after the administration of the test compound or solvent, and blood was sampled one hour later. The serum was separated from the obtained blood, and the TNFα concentration in the serum was measured using an assay kit made by R&D Systems Inc. The inhibition rates of the test group with respect to the control group are shown in Table 3.

CCOC(=O)C1=CC2(CCC1S(=O)(=O)Cc1cccc(C)c1)O[C@@H](CO)[C@H](CO)O2 (stereo partly drawn) [Compound 25, ethyl (2S,3S)-2,3-bis(hydroxymethyl)-8-((3-methylbenzyl)sulfonyl)-1,4-dioxaspiro[4.5]dec-6-ene-7-carboxylate]
NO production inhibitory effect at 100 nM (% inhibition) [1]: 98 % inhibition
Blood TNFα inhibition rate (% inhibition) ([2]; Dose 20 mg/kg): 93.8 % inhibition

CCOC(=O)C1=CC2(CCC1S(=O)(=O)Cc1ccc(F)cc1Cl)O[C@@H](CO)[C@H](CO)O2 (stereo partly drawn) [Compound 1, ethyl (2S,3S)-8-((2-chloro-4-fluorobenzyl)sulfonyl)-2,3-bis(hydroxymethyl)-1,4-dioxaspiro[4.5]dec-6-ene-7-carboxylate]
NO production inhibitory effect at 100 nM (% inhibition) [1]: 107 % inhibition
Blood TNFα inhibition rate (% inhibition) ([2]; Dose 20 mg/kg): 83.3 % inhibition

CCOC(=O)C1=CC2(CCC1S(=O)(=O)Cc1cccc(Cl)c1)O[C@H](CO)[C@@H](CO)O2 (stereo partly drawn) [Compound 3, ethyl (2R,3R)-8-((3-chlorobenzyl)sulfonyl)-2,3-bis(hydroxymethyl)-1,4-dioxaspiro[4.5]dec-6-ene-7-carboxylate]
NO production inhibitory effect at 100 nM (% inhibition) [1]: 100 % inhibition
Blood TNFα inhibition rate (% inhibition) ([2]; Dose 20 mg/kg): 84.9 % inhibition

CCOC(=O)C1=CC2(CCC1S(=O)(=O)Cc1ccc(F)cc1Cl)O[C@@H](CO)[C@H](CO)O2 (single isomer, unassigned) [Compound 7]
NO production inhibitory effect at 100 nM (% inhibition) ([1]; 0.1 µM): 100 % inhibition
Blood TNFα inhibition rate (% inhibition) ([2]; Dose 10 mg/kg): 92.4 % inhibition

CCOC(=O)C1=CC2(CCC1S(=O)(=O)Cc1ccc(F)cc1Cl)O[C@H](CO)[C@@H](CO)O2 (stereo partly drawn) [Compound 2, ethyl (2R,3R)-8-((2-chloro-4-fluorobenzyl)sulfonyl)-2,3-bis(hydroxymethyl)-1,4-dioxaspiro[4.5]dec-6-ene-7-carboxylate]
NO production inhibitory effect at 100 nM (% inhibition) [1]: 106 % inhibition
Blood TNFα inhibition rate (% inhibition) ([2]; Dose 20 mg/kg): 84.5 % inhibition

CCOC(=O)C1=CC2(CCC1S(=O)(=O)Cc1cccc(Cl)c1)O[C@@H](CO)[C@H](CO)O2 (stereo partly drawn) [Compound 24, ethyl (2S,3S)-8-((3-chlorobenzyl)sulfonyl)-2,3-bis(hydroxymethyl)-1,4-dioxaspiro[4.5]dec-6-ene-7-carboxylate]
NO production inhibitory effect at 100 nM (% inhibition) [1]: 100 % inhibition
Blood TNFα inhibition rate (% inhibition) ([2]; Dose 20 mg/kg): 91.5 % inhibition

CCOC(=O)C1=CC2(CCC1S(=O)(=O)Cc1ccc(F)cc1Cl)O[C@H](COC(=O)CN)[C@@H](COC(=O)CN)O2 (stereo partly drawn) [Compound 16, ethyl (2R,3R)-2,3-bis((2-aminoacetoxy)methyl)-8-((2-chloro-4-fluorobenzyl)sulfonyl)-1,4-dioxaspiro[4.5]dec-6-ene-7-carboxylate]
NO production inhibitory effect at 100 nM (% inhibition) [1]: 100 % inhibition

CCOC(=O)C1=CC2(CCC1S(=O)(=O)Cc1ccc(F)cc1Cl)O[C@H](CO)[C@@H](CO)O2 (single isomer, unassigned) [Compound 15]
NO production inhibitory effect at 100 nM (% inhibition) ([1]; 0.1 µM): 75 % inhibition

CCOC(=O)C1=CC2(CCC1S(=O)(=O)Cc1ccc(F)cc1Cl)OCCO2 (centres unmarked) [Compound 22, ethyl 8-((2-chloro-4-fluorobenzyl)sulfonyl)-1,4-dioxaspiro[4.5]dec-6-ene-7-carboxylate]
NO production inhibitory effect at 100 nM (% inhibition) [1]: 110 % inhibition

CCOC(=O)C1=CC2(CCC1S(=O)(=O)Cc1ccc(F)cc1Cl)O[C@H](CO)[C@@H](CO)O2 (single isomer, unassigned) [Compound 14]
NO production inhibitory effect at 100 nM (% inhibition) ([1]; 0.1 µM): 100 % inhibition
Blood TNFα inhibition rate (% inhibition) ([2]; Dose 10 mg/kg): 82.8 % inhibition
